# Laboratory results taken from patent US20060252740A1 (priority 2005, published 2006).
# Experiments:
# [1] = system: MEXF 276L melanoma cells; settings: cited from earlier work
# [2] = system: lung cancer cells with wild-type Rb; settings: cited from earlier work
# [3] = system: cytochrome P450 enzymes; experiment: In vitro metabolism studies; type: in vitro ADME
# [4] = clinical
# Description: PK assessments included the following tests. […] The total number of PK samples collected was approximately 115 mL of whole blood (7-8 tablespoons). If a patient experienced a potentially drug-related SAE, additional PK samples were collected. Blood was drawn from the contralateral arm to the infusion site using an indwelling catheter to avoid multiple needle sticks. […] The blood tube was inverted several times and the tube placed in wet ice immediately pending separation of the plasma. If a catheter was used for blood collection, the fluid in the catheter was completely withdrawn prior to each sample collection and discarded. Plasma samples were kept on wet ice during collection and centrifugation. Plasma samples were split into two cryovials prior to freezing at −70° C.
# [5] = system: SKBr3 breast cancer cells; settings: cited from earlier work
# [6] = system: colon adenocarcinoma cells; settings: cited from earlier work
# [7] = Dose limiting toxicity and drug-related toxicities in dose-escalating clinical trial; type: in vivo, human; settings: twice weekly for two out of three weeks (Days 1, 4, 8, 11; 21 day cycle)
# Description: Eighteen patients were treated in accordance with this protocol.
# [8] = system: NSCLC cells; settings: cited from earlier work
# [9] = system: patients with solid tumors and lymphomas; settings: cited from earlier work
# [10] = system: adult patients with solid tumors; settings: cited from earlier work
# [11] = system: patients with advanced malignancies incl. metastatic melanoma; settings: cited from earlier work
# [12] = system: patients with advanced solid tumors; settings: cited from earlier work
# [13] = system: diffuse GFP positive MM lesions; settings: SCID/NOD mice; cited from earlier work
# [14] = system: plasma protein; experiment: Plasma protein binding, in vitro assays using human blood; type: in vitro ADME
# [15] = Cohorts 1 & 2, 17-AAG 100 mg/m^2, Max
# [16] = Cohorts 1 & 2, 17-AAG 100 mg/m^2, Mean
# [17] = Cohorts 1 & 2, 17-AAG 100 mg/m^2, Median
# [18] = Cohorts 1 & 2, 17-AAG 100 mg/m^2, Min
# [19] = Cohorts 3 & 4, 17-AAG 150 mg/m^2, Max
# [20] = Cohorts 3 & 4, 17-AAG 150 mg/m^2, Mean
# [21] = Cohorts 3 & 4, 17-AAG 150 mg/m^2, Median
# [22] = Cohorts 3 & 4, 17-AAG 150 mg/m^2, Min
# [23] = highest dose level (450 mg/m^2)
smiles,measurement,setting,value
"C=CCNC1=C2C[C@@H](C)C[C@H](OC)[C@H](O)[C@@H](C)/C=C(\C)[C@H](OC(N)=O)[C@@H](OC)/C=C\C=C(/C)C(=O)NC(=CC1=O)C2=O [17-AAG, 17-Allylamino-17-demethoxygeldanamycin]",effect of exposure on client proteins,[1],depletion of Hsp90 and down-regulation of Raf-1 and erbB2
same,effect of exposure on client proteins,[2],"degradation of cdk4, cdk6, and cyclin E"
same,enzymes involved in metabolism,[3],implicate the involvement of cytochrome P450 enzymes
same,AUCext,[4]; [15],10.80%
same,AUCextra,[4]; [15],608.6 ng·h/mL
same,AUClast,[4]; [15],"7,248.8 ng/mL * h"
same,AUCtotal,[4]; [15],"7,857.4 ng/mL * h"
same,Cmax,[4]; [15],"2,620 ng/mL"
same,MRT,[4]; [15],6.04 h
same,Tmax,[4]; [15],3 h
same,t1/2,[4]; [15],5.16 h
same,AUCext,[4]; [16],6%
same,AUCtotal,[4]; [16],"3,805 ng/mL * h"
same,Clearance,[4]; [16],28.63 L/h/m^2
same,Vss,[4]; [16],93.88 L/m^2
same,Vz,[4]; [16],104.58 L/m^2
same,AUCext,[4]; [17],6.10%
same,AUCtotal,[4]; [17],"3,513.8 ng/mL * h"
same,Clearance,[4]; [17],28.46 L/h/m^2
same,Vss,[4]; [17],79.65 L/m^2
same,Vz,[4]; [17],99.17 L/m^2
same,AUCext,[4]; [18],2.54%
same,AUCextra,[4]; [18],87.9 ng·h/mL
same,AUClast,[4]; [18],"2,231.7 ng/mL * h"
same,AUCtotal,[4]; [18],"2,380.5 ng/mL * h"
same,Cmax,[4]; [18],755 ng/mL
same,MRT,[4]; [18],2.37 h
same,Tmax,[4]; [18],0.5 h
same,t1/2,[4]; [18],1.72 h
same,AUCext,[4]; [19],10.5%
same,AUCextra,[4]; [19],595 ng·h/mL
same,AUClast,[4]; [19],"17,650 ng/mL * h"
same,AUCtotal,[4]; [19],"18,246 ng/mL * h"
same,Cmax,[4]; [19],"9,540 ng/mL"
same,MRT,[4]; [19],6.0 h
same,Tmax,[4]; [19],2.17 h
same,t1/2,[4]; [19],5.7 h
same,AUCext,[4]; [20],5%
same,AUCtotal,[4]; [20],"6,030 ng/mL * h"
same,Clearance,[4]; [20],28.94 L/h/m^2
same,Vss,[4]; [20],80.89 L/m^2
same,Vz,[4]; [20],94.79 L/m^2
same,AUCext,[4]; [21],3.8%
same,AUCtotal,[4]; [21],"5,071 ng/mL * h"
same,Clearance,[4]; [21],29.6 L/h/m^2
same,Vss,[4]; [21],84.3 L/m^2
same,Vz,[4]; [21],93.7 L/m^2
same,AUCext,[4]; [22],0.9%
same,AUCextra,[4]; [22],54 ng·h/mL
same,AUClast,[4]; [22],"3,152 ng/mL * h"
same,AUCtotal,[4]; [22],"3,294 ng/mL * h"
same,Cmax,[4]; [22],"1,830 ng/mL"
same,MRT,[4]; [22],1.5 h
same,Tmax,[4]; [22],0.5 h
same,t1/2,[4]; [22],1.6 h
same,Total systemic clearance,[4]; cohorts 1-4 combined,28.83±8.51 L/h/m^2
same,distributive volume VSS,[4]; cohorts 1-4 combined,85.25±31.60 L/m^2
same,distributive volume VZ,[4]; cohorts 1-4 combined,98.05±36.41 L/m^2
same,Clearance,"[4]; human, in vivo, 100 mg/m2",924 mL/min
same,Vd,"[4]; human, in vivo, 100 mg/m2, Vss, Cohorts 1 & 2, 17-AAG 100 mg/m^2, Median",159 L
same,half-life,"[4]; human, in vivo, 150 mg/m2",132 min
same,Vd,"[4]; human, in vivo, 150 mg/m2, Vss, Cohorts 3 & 4, 17-AAG 150 mg/m^2, Mean",143 L
same,Vd,"[4]; human, in vivo, 150 mg/m2, Vz, Cohorts 3 & 4, 17-AAG 150 mg/m^2, Median",172 L
same,Vd,"[4]; human, in vivo, distributive volume VZ, cohorts 1-4 combined",175 ± 68.2 L
same,AUC,"[4]; human, plasma, intravenous, 100 mg/m2, AUCextra, Cohorts 1 & 2, 17-AAG 100 mg/m^2, Mean",225 ng·h/mL
same,AUC,"[4]; human, plasma, intravenous, 100 mg/m2, AUCextra, Cohorts 1 & 2, 17-AAG 100 mg/m^2, Median",166 ng·h/mL
same,AUC(0-t),"[4]; human, plasma, intravenous, 100 mg/m2, AUClast, Cohorts 1 & 2, 17-AAG 100 mg/m^2, Mean",3580 ng·h/mL
same,AUC(0-t),"[4]; human, plasma, intravenous, 100 mg/m2, AUClast, Cohorts 1 & 2, 17-AAG 100 mg/m^2, Median",3350 ng·h/mL
same,Clearance,"[4]; human, plasma, intravenous, 100 mg/m2, Clearance, Cohorts 1 & 2, 17-AAG 100 mg/m^2, Mean",879 mL/min
same,Cmax,"[4]; human, plasma, intravenous, 100 mg/m2, Cmax, Cohorts 1 & 2, 17-AAG 100 mg/m^2, Mean",1790 ng/mL
same,Cmax,"[4]; human, plasma, intravenous, 100 mg/m2, Cmax, Cohorts 1 & 2, 17-AAG 100 mg/m^2, Median",1740 ng/mL
same,MRT,"[4]; human, plasma, intravenous, 100 mg/m2, MRT, Cohorts 1 & 2, 17-AAG 100 mg/m^2, Mean",3.32 h
same,MRT,"[4]; human, plasma, intravenous, 100 mg/m2, MRT, Cohorts 1 & 2, 17-AAG 100 mg/m^2, Median",2.89 h
same,Tmax,"[4]; human, plasma, intravenous, 100 mg/m2, Tmax, Cohorts 1 & 2, 17-AAG 100 mg/m^2, Mean",1 h
same,Tmax,"[4]; human, plasma, intravenous, 100 mg/m2, Tmax, Cohorts 1 & 2, 17-AAG 100 mg/m^2, Median",1 h
same,Vd,"[4]; human, plasma, intravenous, 100 mg/m2, Vss, Cohorts 1 & 2, 17-AAG 100 mg/m^2, Mean",174 L
same,Vd,"[4]; human, plasma, intravenous, 100 mg/m2, Vz, Cohorts 1 & 2, 17-AAG 100 mg/m^2, Mean",193 L
same,Vd,"[4]; human, plasma, intravenous, 100 mg/m2, Vz, Cohorts 1 & 2, 17-AAG 100 mg/m^2, Median",188 L
same,half-life,"[4]; human, plasma, intravenous, 100 mg/m2, t1/2, Cohorts 1 & 2, 17-AAG 100 mg/m^2, Mean",149 min
same,half-life,"[4]; human, plasma, intravenous, 100 mg/m2, t1/2, Cohorts 1 & 2, 17-AAG 100 mg/m^2, Median",137 min
same,AUC,"[4]; human, plasma, intravenous, 150 mg/m2, AUCextra, Cohorts 3 & 4, 17-AAG 150 mg/m^2, Mean",256 ng·h/mL
same,AUC,"[4]; human, plasma, intravenous, 150 mg/m2, AUCextra, Cohorts 3 & 4, 17-AAG 150 mg/m^2, Median",199 ng·h/mL
same,AUC(0-t),"[4]; human, plasma, intravenous, 150 mg/m2, AUClast, Cohorts 3 & 4, 17-AAG 150 mg/m^2, Mean",5770 ng·h/mL
same,AUC(0-t),"[4]; human, plasma, intravenous, 150 mg/m2, AUClast, Cohorts 3 & 4, 17-AAG 150 mg/m^2, Median",4870 ng·h/mL
same,Clearance,"[4]; human, plasma, intravenous, 150 mg/m2, Clearance, Cohorts 3 & 4, 17-AAG 150 mg/m^2, Mean",850 mL/min
same,Clearance,"[4]; human, plasma, intravenous, 150 mg/m2, Clearance, Cohorts 3 & 4, 17-AAG 150 mg/m^2, Median",843 mL/min
same,Cmax,"[4]; human, plasma, intravenous, 150 mg/m2, Cmax, Cohorts 3 & 4, 17-AAG 150 mg/m^2, Mean",3470 ng/mL
same,Cmax,"[4]; human, plasma, intravenous, 150 mg/m2, Cmax, Cohorts 3 & 4, 17-AAG 150 mg/m^2, Median",2740 ng/mL
same,MRT,"[4]; human, plasma, intravenous, 150 mg/m2, MRT, Cohorts 3 & 4, 17-AAG 150 mg/m^2, Mean",2.89 h
same,MRT,"[4]; human, plasma, intravenous, 150 mg/m2, MRT, Cohorts 3 & 4, 17-AAG 150 mg/m^2, Median",2.9 h
same,Tmax,"[4]; human, plasma, intravenous, 150 mg/m2, Tmax, Cohorts 3 & 4, 17-AAG 150 mg/m^2, Mean",1 h
same,Tmax,"[4]; human, plasma, intravenous, 150 mg/m2, Tmax, Cohorts 3 & 4, 17-AAG 150 mg/m^2, Median",0.97 h
same,Vd,"[4]; human, plasma, intravenous, 150 mg/m2, Vss, Cohorts 3 & 4, 17-AAG 150 mg/m^2, Median",151 L
same,Vd,"[4]; human, plasma, intravenous, 150 mg/m2, Vz, Cohorts 3 & 4, 17-AAG 150 mg/m^2, Mean",166 L
same,half-life,"[4]; human, plasma, intravenous, 150 mg/m2, t1/2, Cohorts 3 & 4, 17-AAG 150 mg/m^2, Mean",144 min
same,half-life,"[4]; human, plasma, intravenous, Terminal elimination half-life, cohorts 1-4 combined",146 ± 54 min
same,Clearance,"[4]; human, plasma, intravenous, Total systemic clearance, cohorts 1-4 combined",860 mL/min
same,Vd,"[4]; human, plasma, intravenous, distributive volume VSS, cohorts 1-4 combined",153 ± 62.3 L
same,effect of exposure on client proteins,[5],depletion of erbB2 and destabilization of Raf-1 and mutant p53
same,effect of exposure on client proteins,[6],"depletion of Raf-1, c-Akt, and Erk1/2"
same,17-AAG dose employed without reaching dose limiting toxicity (DLT) in any treated patient,[7],275 mg/m^2
same,effect of exposure on client proteins,[8],depletion of erbB1 (EGFR) and erbB2 (p185) levels
same,levels of Hsp90 client proteins,[9]; during therapy,unchanged during therapy
same,objective tumor responses,[9]; to date,No objective tumor responses
same,MTD,"[9]; weekly 17-AAG, 3 weeks out of a 4 week cycle",308 mg/m^2
same,dose reached without significant toxicity,[9]; weekly dosing,112 mg/m^2
same,maximum tolerated dose (MTD) and recommended Phase 2 dose,[10]; daily for 5 days every 3 weeks,40 mg/m^2
same,dose limiting toxicity,[10]; daily x5 schedule,reversible hepatotoxicity
same,objective tumor responses,[10]; doses up to 110 mg/m^2,No objective tumor responses
same,VZ,[10]; in vivo,93 L/m^2
same,Clearance,[10]; patients treated at 56 mg/m^2,19.9 L/h/m^2
same,average AUC,[10]; patients treated at 56 mg/m^2,"6,708 nM*h"
same,mean peak plasma level,[11]; 450 mg/m^2,"8,998 μg/L"
same,mean volume of distribution,[11]; 450 mg/m^2,142.6 L
same,induction of the co-chaperone protein Hsp70,[11]; 320-450 mg/m^2/week,8 of 9
same,CDK4 depletion in tumor biopsies,[11]; at 24 hours,8 out of 9
same,Raf-1 depletion in tumor biopsies,[11]; at 24 hours,4 out of 6
same,period plasma 17-AAG concentrations remained above 120 nM,[11]; [23],> 24 h
same,plasma 17-AAG concentrations,[11]; [23],exceeded 10 μM
same,complete or partial responses,[11]; in vivo,No complete or partial responses
same,dose at which dose limiting toxicity was observed,"[11]; once weekly, grade ¾ elevation of AST",450 mg/m^2/week
same,stable disease,[11]; patients treated at 320-450 mg/m^2,two showed radiologically documented long term stable disease
same,dose limiting toxicities,"[12]; at the 80 mg/m^2 dose, daily x5","hepatitis, abdominal pain, nausea, dyspnea"
same,Cmax,"[12]; read-out: plasma Cmax, 80 mg/m^2 dose level",2700 nM
same,survival analysis,[13],significantly prolonged median overall survival
same,protein bound in plasma,[14],approximately 95%
